Consider 10 compounds from patent US8022099B2, “N-benzyl pyrrolidine derivatives” (Hoffmann-La Roche Inc., priority 2008, dated 2011).

In one test the target is T1, human NK3 receptor (Homo sapiens, UniProt P29371).
T1 construct: expressed in transfected cells; host or cells: HEK293 cells (transient expression), membrane preparation
T1 sequence (P29371 1-465): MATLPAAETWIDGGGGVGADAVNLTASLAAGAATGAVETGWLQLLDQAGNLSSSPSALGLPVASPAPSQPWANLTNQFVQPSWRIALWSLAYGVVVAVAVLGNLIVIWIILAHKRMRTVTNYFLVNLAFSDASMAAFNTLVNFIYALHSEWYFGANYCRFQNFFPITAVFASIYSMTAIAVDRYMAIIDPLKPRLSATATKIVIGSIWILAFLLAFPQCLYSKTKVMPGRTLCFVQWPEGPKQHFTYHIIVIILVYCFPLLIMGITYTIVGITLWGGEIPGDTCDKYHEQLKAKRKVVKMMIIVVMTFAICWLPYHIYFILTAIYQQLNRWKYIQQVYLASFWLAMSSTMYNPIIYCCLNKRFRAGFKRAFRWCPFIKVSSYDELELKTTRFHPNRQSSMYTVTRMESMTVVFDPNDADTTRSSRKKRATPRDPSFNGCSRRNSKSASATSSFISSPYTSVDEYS
Description: [3H]SR142801 competition binding assay. The conditions noted are these: hNK3 receptor binding, [3H]SR142801, membranes from HEK293 cells transiently expressing recombinant human NK3 receptor. The procedure, abridged: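 Membranes from HEK293 cells transiently expressing human NK3 were incubated 75 min at RT with [3H]SR142801 at its KD and inhibitor (0.0003-10 μM) in Tris-HCl pH 7.4/MnCl2/phosphoramidon/BSA. Nonspecific binding used 10 μM SB222200. Ki from Hill-fitted IC50 via Cheng-Prusoff, duplicate determinations.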
Regarding `CN(Cc1ccc(C(F)(F)F)c(F)c1)[C@H]1CN(C(=O)CN2CCC(N(C)S(C)(=O)=O)CC2)C[C@@H]1c1ccc(Cl)c(Cl)c1` (racemic) [Example 144, N-[1-(2-{(3SR,4RS)-3-(3,4-Dichloro-phenyl)-4-[(3-fluoro-4-trifluoromethyl-benzyl)-methyl-amino]-pyrrolidin-1-yl}-2-oxo-ethyl)-piperidin-4-yl]-N-methyl-methanesulfonamide], the Ki was 5.9 nM. On to `CN(Cc1ccc(C(F)(F)F)c(F)c1)[C@H]1CN(C(=O)CN2CCC(N3CCOCC3=O)CC2)C[C@@H]1c1ccc(Cl)c(Cl)c1` (racemic) [Example 145, 4-[1-(2-{(3SR,4RS)-3-(3,4-Dichloro-phenyl)-4-[(3-fluoro-4-trifluoromethyl-benzyl)-methyl-amino]-pyrrolidin-1-yl}-2-oxo-ethyl)-piperidin-4-yl]-morpholin-3-one], for which the Ki was 13.7 nM. Regarding `CN(Cc1ccc(C(F)(F)F)c(F)c1)[C@H]1CN(C(=O)CN2CCC(N3CCCCC3=O)CC2)C[C@@H]1c1ccc(Cl)c(Cl)c1` (racemic) [Example 146, 1′-(2-{(3SR,4RS)-3-(3,4-Dichloro-phenyl)-4-[(3-fluoro-4-trifluoromethyl-benzyl)-methyl-amino]-pyrrolidin-1-yl}-2-oxo-ethyl)-[1,4′]bipiperidinyl-2-one], the Ki is 14.9 nM. Take `CC(=O)N(C)C1CCN(CC(=O)N2C[C@H](c3ccc(Cl)c(Cl)c3)[C@@H](N(C)Cc3ccc(C(F)(F)F)c(F)c3)C2)CC1` (racemic) [Example 147, N-[1-(2-{(3SR,4RS)-3-(3,4-Dichloro-phenyl)-4-[(3-fluoro-4-trifluoromethyl-benzyl)-methyl-amino]-pyrrolidin-1-yl}-2-oxo-ethyl)-piperidin-4-yl]-N-methyl-acetamide]: the Ki was determined as 13.8 nM. For `CN(Cc1ccc(C(F)(F)F)c(F)c1)[C@H]1CN(C(=O)C2CCN(C(=O)C3(C)CC3)CC2)C[C@@H]1c1ccc(Cl)c(Cl)c1` (racemic) [Example 149, {(3SR,4RS)-3-(3,4-Dichloro-phenyl)-4-[(3-fluoro-4-trifluoromethyl-benzyl)-methyl-amino]-pyrrolidin-1-yl}-[1-(1-methyl-cyclopropanecarbonyl)-piperidin-4-yl]-methanone], the Ki came out at 3.1 nM.

Turning to `CN(Cc1ccc(C(F)(F)F)c(F)c1)[C@H]1CN(C(=O)N2CCN(c3ncccc3C#N)CC2)C[C@@H]1c1ccc(Cl)c(Cl)c1` [Example 71, 2-(4-{(3S,4R)-3-(3,4-Dichloro-phenyl)-4-[(3-fluoro-4-trifluoromethyl-benzyl)-methyl-amino]-pyrrolidine-1-carbonyl}-piperazin-1-yl)-nicotinonitrile], the Ki is 13.4 nM. The same measure, in the same setting: then `COCCCCC(=O)N1C[C@H](c2ccc(Cl)c(Cl)c2)[C@@H](N(C)Cc2ccc(C(F)(F)F)c(F)c2)C1` [Example 99, 1-{(3S,4R)-3-(3,4-Dichloro-phenyl)-4-[(3-fluoro-4-trifluoromethyl-benzyl)-methyl-amino]-pyrrolidin-1-yl}-5-methoxy-pentan-1-one], with 36.6 nM; and `CN(Cc1ccc(C(F)(F)F)c(F)c1)[C@H]1CN(C(=O)CCN2CCOCC2)C[C@@H]1c1ccc(Cl)c(Cl)c1` [Example 110, 1-{(3S,4R)-3-(3,4-Dichloro-phenyl)-4-[(3-fluoro-4-trifluoromethyl-benzyl)-methyl-amino]-pyrrolidin-1-yl}-3-morpholin-4-yl-propan-1-one], with 26.7 nM; and `CN(Cc1ccc(C(F)(F)F)c(F)c1)[C@H]1CN(C(=O)CN2CCS(=O)(=O)CC2)C[C@@H]1c1ccc(Cl)c(Cl)c1` [Example 135, 1-{(3S,4R)-3-(3,4-Dichloro-phenyl)-4-[(3-fluoro-4-trifluoromethyl-benzyl)-methyl-amino]-pyrrolidin-1-yl}-2-(1,1-dioxo-λ^6-thiomorpholin-4-yl)-ethanone], with 43.7 nM.

Tested on in the next test: not given
Test: not given
The conditions noted are these: phase II trial; altered behaviour, delusion, hallucinations, extreme emotions, excited motor activity, incoherent speech; cited from earlier work.
For `CC(=O)N(C)C1(c2ccccc2)CCN(CCC[C@]2(c3ccc(Cl)c(Cl)c3)CCCN(C(=O)c3ccccc3)C2)CC1` [SR 142,801, Osanetant], the “activity on positive symptoms of schizophrenia” value is given as “active”.

The test is the same for the next values; noted with them: phase II trial; depression, anhedonia, social isolation, memory and attention deficits; cited from earlier work.
Take `CC(=O)N(C)C1(c2ccccc2)CCN(CCC[C@]2(c3ccc(Cl)c(Cl)c3)CCCN(C(=O)c3ccccc3)C2)CC1` [SR 142,801, Osanetant]: the “activity in the treatment of negative symptoms of schizophrenia” value was “inactive”.

What is called Ki is the dissociation constant of the complex between target and ligand, obtained from inhibition or displacement.
